We go through one substance from US20250281629A1, “COMPOSITIONS AND METHODS FOR ANTI-PHOSPHOCHOLINE ACTIVE IMMUNOTHERAPY” (Duke University, priority 2022, published 2025).

Where no end group is shown, it is not given here.

This assay relates to ZO-1. The experiment in a line: Immunofluorescence of colon tight junction protein ZO-1. The note with it: week 5; vs PBS control mice. The class given is in vivo, mouse. The method, then: Immunofluorescence Imaging and Analysis. Immunofluorescence was conducted on sections from proximal colon samples frozen in OCT and sectioned. Slides were first thawed and outlined with a hydrophobic pen (ImmEdge Hydrophobic Barrier PAP Pen, Vector Labs, H-4000) then fixed with 4% paraformaldehyde for 10 min at room temperature. The slides were washed three times with wash buffer (1×PBS+100 mM CaCl2+100 mM MgCl) for 10 min at room temperature then incubated in a blocking solution containing 0.3% Triton X-100 and 10% normal donkey serum in 1×PBS+100 mM CaCl2+100 mM MgCl for 1 h at room temperature. The slides were then incubated in the primary antibodies (rat anti-ZO-1, clone R40.70, Fisher Scientific, MABT11; rabbit anti-occludin, clone EPR20992, Abcam, ab216327) diluted 1:100 in the blocking solution overnight at 4° C. The slides were washed three times with wash buffer for 10 min at room temperature. They were then incubated in the secondary antibodies (donkey anti-rat Alexa Fluor™ 568, Thermo Fisher, A78946; donkey anti-rabbit Alexa Fluor™ 647, Thermo Fisher, A31573) and nuclear marker DAPI diluted 1:500 in the blocking solution for 2 h at room temperature. […] The intensities of each marker were quantified using ImageJ and expressed as the integrated density of the fluorescent signal normalized to the area fraction of DAPI positive pixels. […]

For “(C11H22NO6P)n-CCCCSGSG-QQKFQFQFEQQ-NH2 (CCCCSGSGQQKFQFQFEQQ-NH2; not fully specified; cysteine pairing not given here; also: phosphorylcholine groups (C11H22NO6P) n=1-4, attachment not placed) [PCM-Q11, linear multi-PC conjugate]”, the “ZO-1 levels in colon after immunization” value is “not significantly different”.
